Reference: ChEMBL document CHEMBL2074278, “Temocaprilat, a novel angiotensin-converting enzyme inhibitor, is excreted in bile via an ATP-dependent active transporter (cMOAT) that is deficient in Eisai hyperbilirubinemic mutant rats (EHBR)” (J Pharmacol Exp Ther, 1997)

Columns and labels:
Assay type in all cases: functional, cell membranes, Sprague-Dawley, Bile canalicular membrane vesicle
[1] = target: T1, ATP-binding cassette sub-family C member 2 (Rattus norvegicus, UniProt Q63120); assay: TP_TRANSPORTER: inhibition of DNP-SG uptake in bile canalicular membrane vesicles from SD rat
[2] = target: T1, ATP-binding cassette sub-family C member 2; assay: TP_TRANSPORTER: inhibition of Temocaprilat uptake in bile canalicular membrane vesicles from SD rat
[3] = substrate: O=C(O)CN1C[C@@H](c2cccs2)SC[C@H](N[C@@H](CCc2ccccc2)C(=O)O)C1=O; assay: TP_TRANSPORTER: uptake in bile canalicular membrane vesicles from SD rat

Molecule: O=C(O)CN1C[C@@H](c2cccs2)SC[C@H](N[C@@H](CCc2ccccc2)C(=O)O)C1=O [TEMOCAPRILAT]
- Ki [1]: 343 µM

Molecule: N[C@@H](CCC(=O)N[C@H](CSc1ccc([N+](=O)[O-])cc1[N+](=O)[O-])C(=O)NCC(=O)O)C(=O)O
- Ki [2]: 25.8 µM

B1: ATP-binding cassette sub-family C member 2 (Rattus norvegicus) (protein)
chain: MDKFCNSTFWDLSLLESPEADLPLCFEQTVLVWIPLGFLWLLAPWQLYSVYRSRTKRSSITKFYLAKQVFVVFLLILAAIDLSLALTEDTGQATVPPVRYTNPILYLCTWLLVLAVQHSRQWCVRKNSWFLSLFWILSVLCGVFQFQTLIRALLKDSKSNMAYSYLFFVSYGFQIVLLILTAFSGPSDSTQTPSVTASFLSSITFSWYDRTVLKGYKHPLTLEDVWDIDEGFKTRSVTSKFEAAMTKDLQKARQAFQRRLQKSQRKPEATLHGLNKKQSQSQDVLVLEEAKKKSEKTTKDYPKSWLIKSLFKTFHVVILKSFILKLIHDLLVFLNPQLLKLLIGFVKSSNSYVWFGYICAILMFAVTLIQSFCLQSYFQHCFVLGMCVRTTVMSSIYKKALTLSNLARKQYTIGETVNLMSVDSQKLMDATNYMQLVWSSVIQITLSIFFLWRELGPSILAGVGVMVLLIPVNGVLATKIRNIQVQNMKNKDKRLKIMNEILSGIKILKYFAWEPSFQEQVQGIRKKELKNLLRFGQLQSLLIFILQITPILVSVVTFSVYVLVDSANVLNAEKAFTSITLFNILRFPLSMLPMVTSSILQASVSVDRLERYLGGDDLDTSAIRRVSNFDKAVKFSEASFTWDPDLEATIQDVNLDIKPGQLVAVVGTVGSGKSSLVSAMLGEMENVHGHITIQGSTAYVPQQSWIQNGTIKDNILFGSEYNEKKYQQVLKACALLPDLEILPGGDMAEIGEKGINLSGGQKQRVSLARAAYQDADIYILDDPLSAVDAHVGKHIFNKVVGPNGLLAGKTRIFVTHGIHFLPQVDEIVVLGKGTILEKGSYRDLLDKKGVFARNWKTFMKHSGPEGEATVNNDSEAEDDDDGLIPTMEEIPEDAASLAMRRENSLRRTLSRSSRSSSRRGKSLKNSLKIKNVNVLKEKEKEVEGQKLIKKEFVETGKVKFSIYLKYLQAVGWWSILFIILFYGLNNVAFIGSNLWLSAWTSDSDNLNGTNNSSSHRDMRIGVFGALGLAQGICLLISTLWSIYACRNASKALHGQLLTNILRAPMRFFDTTPTGRIVNRFSGDISTVDDLLPQTLRSWMMCFFGIAGTLVMICMATPVFAIIIIPLSILYISVQVFYVATSRQLRRLDSVTKSPIYSHFSETVTGLPIIRAFEHQQRFLAWNEKQIDINQKCVFSWITSNRWLAIRLELVGNLVVFCSALLLVIYRKTLTGDVVGFVLSNALNITQTLNWLVRMTSEAETNIVAVERISEYINVENEAPWVTDKRPPADWPRHGEIQFNNYQVRYRPELDLVLKGITCNIKSGEKVGVVGRTGAGKSSLTNCLFRILESAGGQIIIDGIDVASIGLHDLRERLTIIPQDPILFSGSLRMNLDPFNKYSDEEVWRALELAHLRSFVSGLQLGLLSEVTEGGDNLSIGQRQLLCLGRAVLRKSKILVLDEATAAVDLETDSLIQTTIRKEFSQCTVITIAHRLHTIMDSDKIMVLDNGKIVEYGSPEELLSNRGSFYLMAKEAGIENVNHTEL
- Km [3]: 92.5 µM
